Measured values reported in PMC9827108 (Cancer Discovery, 2022).
Where two headings read alike, the source gives them in different places.

Columns and labels:
[1] = tested on: patients with EGFRm, MET-amplified/overexpressed NSCLC; format: in vivo, human
[2] = format: in vivo, human; conditions: Parts B and D

| SMILES | Any AE grade ≥3 possibly causally related to the labelled drug(s) only ([1]; All Part B) | Any AE leading to discontinuation of the labelled drug ([1]; All Part B) | Any AE leading to interruption or reduction of the labelled drug ([1]; All Part B) | Any SAE leading to discontinuation of the labelled drug ([1]; All Part B) | Any SAE leading to interruption or reduction of the labelled drug ([1]; All Part B) | Any SAE possibly causally related to the labelled drug(s) only ([1]; All Part B) | Labelled drug discontinued due to possibly causally related AE: vomiting ([1]; All Part B) | Any AE grade ≥3 possibly causally related to the labelled drug(s) only ([1]; Part B1) | Any AE leading to discontinuation of the labelled drug ([1]; Part B1) | Any AE leading to interruption or reduction of the labelled drug ([1]; Part B1) | Any SAE leading to discontinuation of the labelled drug ([1]; Part B1) | Any SAE leading to interruption or reduction of the labelled drug ([1]; Part B1) | Any SAE possibly causally related to the labelled drug(s) only ([1]; Part B1) | Any AE grade ≥3 possibly causally related to the labelled drug(s) only ([1]; Part B2) | Any AE leading to discontinuation of the labelled drug ([1]; Part B2) | Any AE leading to interruption or reduction of the labelled drug ([1]; Part B2) | Any SAE leading to discontinuation of the labelled drug ([1]; Part B2) | Any SAE leading to interruption or reduction of the labelled drug ([1]; Part B2) | Any SAE possibly causally related to the labelled drug(s) only ([1]; Part B2) | Any AE grade ≥3 possibly causally related to the labelled drug(s) only ([1]; Part B3) | also measured |
| --- | --- | --- | --- | --- | --- | --- | --- | --- | --- | --- | --- | --- | --- | --- | --- | --- | --- | --- | --- | --- | --- |
| C[C@@H](c1ccc2nccn2c1)n1nnc2ncc(-c3cnn(C)c3)nc21 [savolitinib, (S)-1-(1-(Imidazo[1,2-a]pyridin-6-yl)ethyl)-6-(1-methyl-1H-pyrazol-4-yl)-1H-[1,2, 3]triazolo[4,5-b]pyrazine] | 34 (25) n (%) | 49 (36) n (%) | 61 (44%) n (%) | 28 (20) n (%) | 20 (14) n (%) | 15 (11) n (%) | 4 (3%) n (%) | 14 (20) n (%) | 19 (28) n (%) | 27 (39) n (%) | 11 (16) n (%) | 9 (13) n (%) | 6 (9) n (%) | 13 (25) n (%) | 20 (39) n (%) | 25 (49) n (%) | 11 (22) n (%) | 9 (18) n (%) | 6 (12) n (%) | 7 (39) n (%) | Any AE leading to interruption or reduction of the labelled drug ([1]; All Part B, listed as Savolitinib): 61 (44) n (%); Deaths due to AEs considered possibly causally related to study drug ([1]; Part B2): one case was considered possibly related to savolitinib (acute renal failure); Any AE leading to discontinuation of the labelled drug ([1]; Part B3): 10 (56) n (%); Any AE leading to interruption or reduction of the labelled drug ([1]; Part B3): 9 (50) n (%); Any SAE leading to discontinuation of the labelled drug ([1]; Part B3): 6 (33) n (%); Any SAE leading to interruption or reduction of the labelled drug ([1]; Part B3): 2 (11) n (%); Any SAE possibly causally related to the labelled drug(s) only ([1]; Part B3): 3 (17) n (%); Any AE grade ≥3 possibly causally related to the labelled drug(s) only ([1]; Part D): 5 (12) n (%); Any AE leading to discontinuation of the labelled drug ([1]; Part D): 15 (36) n (%); Any AE leading to interruption or reduction of the labelled drug ([1]; Part D): 16 (38) n (%); Any SAE leading to discontinuation of the labelled drug ([1]; Part D): 6 (14) n (%); Any SAE leading to interruption or reduction of the labelled drug ([1]; Part D): 7 (17) n (%); Any SAE possibly causally related to the labelled drug(s) only ([1]; Part D): 2 (5) n (%); Labelled drug discontinued due to possibly causally related AE: myalgia ([1]; Part D): 3 (7%) n (%); Labelled drug discontinued due to possibly causally related AE: pyrexia ([1]; Part D): 2 (5%) n (%); Labelled drug discontinued due to possibly causally related AE: rash ([1]; Part D): 2 (5%) n (%); Accumulation and time dependence of PK at steady state ([2]; multiple dosing): neither apparent accumulation nor time-dependent PK changes upon multiple dosing; half-life ([2]; human, plasma, oral, Mean terminal elimination half-life (t1/2λz), single and multiple dosing): 2 to 4 h; Tmax ([2]; human, plasma, oral, Median tmax and tssmax, savolitinib 600 mg/300 mg q.d. + osimertinib 80 mg q.d.): 2 to 4 h |
| C=CC(=O)Nc1cc(Nc2nccc(-c3cn(C)c4ccccc34)n2)c(OC)cc1N(C)CCN(C)C [osimertinib] | 8 (6) n (%) | 24 (17) n (%) | 59 (43%) n (%) | 20 (14) n (%) | 27 (20) n (%) | 0 n (%) | 2 (1%) n (%) | 3 (4) n (%) | 12 (17) n (%) | 22 (32) n (%) | 9 (13) n (%) | 10 (14) n (%) | 0 n (%) | 3 (6) n (%) | 9 (18) n (%) | 25 (49) n (%) | 8 (16) n (%) | 11 (22) n (%) | 0 n (%) | 2 (11) n (%) | Labelled drug discontinued due to possibly causally related AE: pneumonitis ([1]; All Part B): 3 (2%) n (%); Any AE leading to interruption or reduction of the labelled drug ([1]; All Part B, listed as Osimertinib): 59 (43) n (%); Any AE leading to discontinuation of the labelled drug ([1]; Part B3): 3 (17) n (%); Any AE leading to interruption or reduction of the labelled drug ([1]; Part B3): 12 (67) n (%); Any SAE leading to discontinuation of the labelled drug ([1]; Part B3): 3 (17) n (%); Any SAE leading to interruption or reduction of the labelled drug ([1]; Part B3): 6 (33) n (%); Any SAE possibly causally related to the labelled drug(s) only ([1]; Part B3): 0 n (%); Any AE grade ≥3 possibly causally related to the labelled drug(s) only ([1]; Part D): 2 (5) n (%); Any AE leading to discontinuation of the labelled drug ([1]; Part D): 8 (19) n (%); Any AE leading to interruption or reduction of the labelled drug ([1]; Part D): 13 (31) n (%); Any SAE leading to discontinuation of the labelled drug ([1]; Part D): 2 (5) n (%); Any SAE leading to interruption or reduction of the labelled drug ([1]; Part D): 10 (24) n (%); Any SAE possibly causally related to the labelled drug(s) only ([1]; Part D): 1 (2) n (%) |
